Laboratory results taken from patent US11098032B2, “Pyran dervatives as CYP11A1 (cytochrome P450 monooxygenase 11A1) inhibitors” (ORION CORPORATION, priority 2016, dated 2021).

Target: T1, CYP11A1 (Homo sapiens, UniProt P05108)
T1 construct: human H295R adrenocortical carcinoma cell line was used as source of enzyme; endogenous in cells; host or cells: H295R human adrenocortical carcinoma cells
T1 sequence (P05108 40-521): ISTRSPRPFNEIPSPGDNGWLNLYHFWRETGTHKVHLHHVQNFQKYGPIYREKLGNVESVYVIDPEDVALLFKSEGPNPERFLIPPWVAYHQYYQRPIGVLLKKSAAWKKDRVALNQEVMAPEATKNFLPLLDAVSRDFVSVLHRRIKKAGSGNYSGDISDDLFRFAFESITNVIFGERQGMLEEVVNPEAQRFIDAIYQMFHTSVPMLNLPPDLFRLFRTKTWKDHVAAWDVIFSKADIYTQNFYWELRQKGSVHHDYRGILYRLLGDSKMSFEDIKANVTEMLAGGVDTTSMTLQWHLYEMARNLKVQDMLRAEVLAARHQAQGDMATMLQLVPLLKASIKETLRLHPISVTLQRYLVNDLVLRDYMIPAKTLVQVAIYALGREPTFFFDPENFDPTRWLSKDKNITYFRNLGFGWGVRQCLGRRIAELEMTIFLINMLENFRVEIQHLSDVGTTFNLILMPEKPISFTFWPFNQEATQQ
Assay: CYP11A1 inhibition: modified isocaproic acid release assay (IARA) in H295R cells
Type: cell-based
Conditions: human H295R adrenocortical carcinoma cells treated three days, 3 nM [24,25-3H]-labelled cholesterol, 1% DMSO, 10 concentrations in duplicates; read-out: IC50 of the test compounds on CYP11A1 inhibition
In short: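 H295R adrenocortical cells treated three days with test compounds at 10 concentrations in duplicate plus 3 nM [24,25-3H]-cholesterol, 1% DMSO final. Released radiolabelled isocaproic acid measured by scintillation counting after dextran-coated charcoal extraction; IC50 determined.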

Row | IC50 | SMILES
1 | 0.301 to 2 µM | COC(=O)c1ccc(COc2coc(CN3Cc4ccccc4C3)cc2=O)cc1 [Compound 60, Methyl 4-(((6-(isoindolin-2-ylmethyl)-4-oxo-4H-pyran-3-yl)oxy)methyl)benzoate]
2 | < 0.15 µM | CC(C)(O)c1ccc(COc2coc(CN3CCc4ccccc4C3)cc2=O)cc1 [Compound 44, 2-((3,4-dihydroisoquinolin-2(1H)-yl)methyl)-5-((4-(2-hydroxypropan-2-yl)-benzyl)oxy)-4H-pyran-4-one]
3 | < 0.15 µM | O=c1cc(CN2Cc3ccccc3C2)occ1OCc1ccc(C2(O)COC2)cc1 [Compound 114, 5-((4-(3-Hydroxyoxetan-3-yl)benzyl)oxy)-2-(isoindolin-2-ylmethyl)-4H-pyran-4-one]
4 | < 0.15 µM | COc1ccc2c(c1)CN(Cc1cc(=O)c(OCc3ccc(C(=O)N4CC(F)(F)C4)cc3)co1)C2 [Compound 162, 5-((4-(3,3-Difluoroazetidine-1-carbonyl)benzyl)oxy)-2-((5-methoxyisoindolin-2-yl)methyl)-4H-pyran-4-one]
5 | 0.15 to 0.3 µM | C=CC(=O)N1CCC(COc2coc(CN3Cc4ccccc4C3)cc2=O)CC1 [Compound 258, 5-((1-Acryloylpiperidin-4-yl)methoxy)-2-(isoindolin-2-ylmethyl)-4H-pyran-4-one]
6 | 0.301 to 2 µM | CNC(=O)/C=C/c1ccc(COc2coc(CN3CCc4ccccc4C3)cc2=O)cc1 [Compound 148, (E)-3-(4-(((6-((3,4-Dihydroisoquinolin-2(1H)-yl)methyl)-4-oxo-4H-pyran-3-yl)oxy)methyl)phenyl)-N-methylacrylamide]
7 | < 0.15 µM | CCC(=O)N1CCC(COc2coc(CN3Cc4ccc(C(F)(F)F)cc4C3)cc2=O)CC1 [Compound 244a, 5-((1-Propionylpiperidin-4-yl)methoxy)-2-((5-(trifluoromethyl)isoindolin-2-yl)methyl)-4H-pyran-4-one]
8 | < 0.15 µM | CS(=O)(=O)N1CCC(CCCOc2coc(CN3Cc4ccccc4C3)cc2=O)CC1 [Compound 213, 2-(Isoindolin-2-ylmethyl)-5-(3-(1-(methylsulfonyl)piperidin-4-yl)propoxy)-4H-pyran-4-one]
9 | 0.15 to 0.3 µM | C[S+]([O-])c1ccc(COc2coc(CN3Cc4ccccc4C3)cc2=O)cc1 (stereo not shown) [Compound 81, 2-(Isoindolin-2-ylmethyl)-5-((4-(methylsulfinyl)benzyl)oxy)-4H-pyran-4-one]
10 | 0.301 to 2 µM | NC(=O)c1ccc(COc2coc(CN3Cc4ccccc4C3)cc2=O)cc1F [Compound 171, 2-Fluoro-4-(((6-(isoindolin-2-ylmethyl)-4-oxo-4H-pyran-3-yl)oxy)methyl)-benzamide]
11 | < 0.15 µM | CN(C)S(=O)(=O)c1ccc(COc2coc(CN3Cc4ccccc4C3)cc2=O)cc1 [Compound 10, 4-(((6-(Isoindolin-2-ylmethyl)-4-oxo-4H-pyran-3-yl)oxy)methyl)-N,N-di-methylbenzenesulfonamide]
12 | < 0.15 µM | O=c1cc(CN2Cc3ccccc3C2)occ1OCC1CCN(S(=O)(=O)C2CC2)CC1 [Compound 187, 5-((1-(Cyclopropylsulfonyl)piperidin-4-yl)methoxy)-2-(isoindolin-2-ylmethyl)-4H-pyran-4-one]
13 | < 0.15 µM | CCS(=O)(=O)N1CCC(C)(COc2coc(CN3Cc4ccccc4C3)cc2=O)CC1 [Compound 192, 5-((1-(Ethylsulfonyl)-4-methylpiperidin-4-yl)methoxy)-2-(isoindolin-2-ylmethyl)-4H-pyran-4-one]
14 | 0.301 to 2 µM | O=c1cc(CN2Cc3ccccc3C2)occ1OCC1CCS(=O)(=O)CC1 [Compound 35, 5-((1,1-Dioxidotetrahydro-2H-thiopyran-4-yl)methoxy)-2-(isoindolin-2-yl-methyl)-4H-pyran-4-one]
15 | 0.301 to 2 µM | O=c1cc(CN2Cc3ccccc3C2)occ1OCc1ccc([N+](=O)[O-])cc1 [Compound 38, 2-(Isoindolin-2-ylmethyl)-5-((4-nitrobenzyl)oxy)-4H-pyran-4-one]
16 | 0.301 to 2 µM | CS(=O)(=O)N1CCC(COc2coc(CN3CCc4ccccc4C3)cc2=O)CC1 [Compound 179, 2-((3,4-Dihydroisoquinolin-2(1H)-yl)methyl)-5-((1-(methylsulfonyl)piperidin-4-yl)methoxy)-4H-pyran-4-one]
17 | 0.301 to 2 µM | CS(=O)(=O)c1ccc(COc2coc(CN3Cc4cccc(Cl)c4C3)cc2=O)cc1 [Compound 281, 2-((4-Chloroisoindolin-2-yl)methyl)-5-((4-(methylsulfonyl)benzyl)oxy)-4H-pyran-4-one]

Row | IC50 | SMILES
18 | 0.15 to 0.3 µM | CC(=O)OCC(C)(C)NC(=O)c1ccc(COc2coc(CN3Cc4ccccc4C3)cc2=O)cc1 [Compound 143, 2-(4-(((6-(Isoindolin-2-ylmethyl)-4-oxo-4H-pyran-3-yl)oxy)methyl)benzamido)-2-methylpropyl acetate]
19 | 0.301 to 2 µM | O=c1cc(CN2CCc3ccccc3C2)occ1OCc1ccc(C2(O)COC2)cc1 [Compound 117, 2-((3,4-Dihydroisoquinolin-2(1H)-yl)methyl)-5-((4-(3-hydroxyoxetan-3-yl)-benzyl)oxy)-4H-pyran-4-one]
20 | 0.15 to 0.3 µM | O=c1cc(CN2Cc3ccccc3C2)occ1OCC1CCN(S(=O)(=O)c2ccc(F)cc2)CC1 [Compound 256, 5-((1-((4-Fluorophenyl)sulfonyl)piperidin-4-yl)methoxy)-2-(isoindolin-2-yl-methyl)-4H-pyran-4-one]
21 | < 0.15 µM | COCCNS(=O)(=O)c1ccc(COc2coc(CN3Cc4ccccc4C3)cc2=O)cc1 [Compound 11, 4-(((6-(Isoindolin-2-ylmethyl)-4-oxo-4H-pyran-3-yl)oxy)methyl)-N-(2-methoxyethyl)benzenesulfonamide]
22 | 0.15 to 0.3 µM | CN(C1CCC(COc2coc(CN3Cc4ccccc4C3)cc2=O)CC1)S(C)(=O)=O (stereo not shown) [Compound 218, N-(4-(((6-(Isoindolin-2-ylmethyl)-4-oxo-4H-pyran-3-yl)oxy)methyl)cyclohexyl)-N-methylmethanesulfonamide]
23 | < 0.15 µM | CN(C)C(=O)/C=C/c1ccc(COc2coc(CN3Cc4ccccc4C3)cc2=O)cc1 [Compound 146, (E)-3-(4-(((6-(Isoindolin-2-ylmethyl)-4-oxo-4H-pyran-3-yl)oxy)methyl)phenyl)-N,N-dimethylacrylamide]
24 | < 0.15 µM | CN(C)C(=O)c1ccc(COc2coc(CN3Cc4ccc(Cl)cc4C3)cc2=O)cc1 [Compound 137, 4-(((6-((5-Chloroisoindolin-2-yl)methyl)-4-oxo-4H-pyran-3-yl)oxy)methyl)-N,N-dimethylbenzamide]
25 | < 0.15 µM | CC(C)CS(=O)(=O)N1CCC(COc2coc(CN3Cc4ccccc4C3)cc2=O)CC1 [Compound 271, 5-((1-(Isobutylsulfonyl)piperidin-4-yl)methoxy)-2-(isoindolin-2-ylmethyl)-4H-pyran-4-one]
26 | 0.15 to 0.3 µM | CSc1ccc(COc2coc(CN3Cc4ccccc4C3)cc2=O)cc1 [Compound 82, 2-(Isoindolin-2-ylmethyl)-5-((4-(methylthio)benzyl)oxy)-4H-pyran-4-one]
27 | 0.301 to 2 µM | CN(C)C(=O)c1ccc(COc2coc(CN3Cc4cccc(F)c4C3)cc2=O)cc1 [Compound 32, 4-(((6-((4-Fluoroisoindolin-2-yl)methyl)-4-oxo-4H-pyran-3-yl)oxy)methyl)-N,N-dimethylbenzamide]
28 | 0.15 to 0.3 µM | O=c1cc(CN2Cc3ccccc3C2)occ1OCc1ccc(-c2ccccc2)cc1 [Compound 164, 5-([1,1′-Biphenyl]-4-ylmethoxy)-2-(isoindolin-2-ylmethyl)-4H-pyran-4-one]
29 | < 0.15 µM | CN(C)C(=O)c1cc(F)c(COc2coc(CN3Cc4ccccc4C3)cc2=O)c(F)c1 [Compound 172, 3,5-Difluoro-4-(((6-(isoindolin-2-ylmethyl)-4-oxo-4H-pyran-3-yl)oxy)methyl)-N,N-dimethylbenzamide]
30 | < 0.15 µM | C[S@@](=N)(=O)c1ccc(COc2coc(CN3Cc4ccc(C(F)(F)F)cc4C3)cc2=O)cc1 [Compound 286, 5-((4-(R-Methylsulfonimidoyl)-benzyl)oxy)-2-((5-(trifluoromethyl)isoindolin-2-yl)methyl)-4H-pyran-4-one]
31 | < 0.15 µM | CS(=N)c1ccc(COc2coc(CN3Cc4ccc(C(F)(F)F)cc4C3)cc2=O)cc1 (stereo not shown) [Compound 74, 5-((4-(S-methylsulfinimidoyl)benzyl)oxy)-2-((5-(trifluoromethyl)isoindolin-2-yl)methyl)-4H-pyran-4-one]
32 | 0.301 to 2 µM | O=C(c1ccc(COc2coc(CN3Cc4ccc(F)cc4C3)cc2=O)cc1)N1CCC1 [Compound 150, 5-((4-(Azetidine-1-carbonyl)benzyl)oxy)-2-((5-fluoroisoindolin-2-yl)methyl)-4H-pyran-4-one]
33 | < 0.15 µM | COCCS(=O)(=O)N1CCC(COc2coc(CN3Cc4ccccc4C3)cc2=O)CC1 [Compound 262, 2-(Isoindolin-2-ylmethyl)-5-((1-((2-methoxyethyl)sulfonyl)piperidin-4-yl)-methoxy)-4H-pyran-4-one]
34 | 0.15 to 0.3 µM | CS(=O)(=O)N1CCC(F)(COc2coc(CN3Cc4ccccc4C3)cc2=O)CC1 [Compound 235, 5-((4-Fluoro-1-(methylsulfonyl)piperidin-4-yl)methoxy)-2-(isoindolin-2-yl-methyl)-4H-pyran-4-one]
